Assay results: patent US7297551B2, “Recombinant proteins and peptides for endotoxin biosensors, endotoxin removal, and anti-microbial and anti-endotoxin therapeutics” (priority 1998, dated 2007)

Columns and labels:
[1] = molecular target: T1, rFC (full-length recombinant C. rotundicauda Factor C, CrFC21, from P. pastoris) (Carcinoscorpius rotundicauda, UniProt Q26422); experiment: BIACORE X binding to immobilized lipid A; settings: partially-pure rFC to lipid A 10:1 on a mass basis
T1 sequence (Q26422 1-1019): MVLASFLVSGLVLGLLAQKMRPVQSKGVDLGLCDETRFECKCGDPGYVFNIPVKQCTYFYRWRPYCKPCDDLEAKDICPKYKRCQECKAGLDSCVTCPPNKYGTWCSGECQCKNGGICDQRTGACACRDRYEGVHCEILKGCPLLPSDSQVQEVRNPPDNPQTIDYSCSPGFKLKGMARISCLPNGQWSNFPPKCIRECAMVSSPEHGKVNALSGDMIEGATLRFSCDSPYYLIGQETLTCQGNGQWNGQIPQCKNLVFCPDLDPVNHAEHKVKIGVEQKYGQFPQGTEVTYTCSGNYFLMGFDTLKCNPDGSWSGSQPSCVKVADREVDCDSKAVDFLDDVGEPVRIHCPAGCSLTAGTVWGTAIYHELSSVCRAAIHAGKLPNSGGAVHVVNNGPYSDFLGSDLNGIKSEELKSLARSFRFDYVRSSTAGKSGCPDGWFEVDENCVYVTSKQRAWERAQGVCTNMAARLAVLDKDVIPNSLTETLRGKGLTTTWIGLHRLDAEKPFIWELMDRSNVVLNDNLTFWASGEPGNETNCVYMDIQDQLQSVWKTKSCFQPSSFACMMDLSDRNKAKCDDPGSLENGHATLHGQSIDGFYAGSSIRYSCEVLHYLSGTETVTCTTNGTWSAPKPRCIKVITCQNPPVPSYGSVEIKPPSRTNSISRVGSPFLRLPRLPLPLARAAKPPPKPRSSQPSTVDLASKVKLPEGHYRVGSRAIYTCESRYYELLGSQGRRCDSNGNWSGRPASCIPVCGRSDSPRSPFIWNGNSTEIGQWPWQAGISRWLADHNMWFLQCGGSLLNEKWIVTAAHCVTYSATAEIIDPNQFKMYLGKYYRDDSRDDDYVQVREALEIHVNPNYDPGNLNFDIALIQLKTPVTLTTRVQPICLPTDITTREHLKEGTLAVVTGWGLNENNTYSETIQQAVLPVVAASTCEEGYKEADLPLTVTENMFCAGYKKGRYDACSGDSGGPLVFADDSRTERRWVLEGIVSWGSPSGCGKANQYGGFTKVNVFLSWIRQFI
Description: The binding interactions between rFC and immobilized lipid A were monitored using the BIACORE X™ biosensor (Pharmacia Biotech). The BIACORE X™ sensor chip features a flat hydrophobic surface that allows the immobilization of ligand molecules. Thirty microliters of lipid A at 100 μg/ml were immobilized on each sensor chip to form a ligand surface. Biomax™-50 enriched samples of rFC, rFCEE and rFCSN, each at 1 mg/ml were injected at 10 μl/min for 3 min over the ligand surface. After each injection of the recombinant protein samples, the lipid A ligand surface was regenerated using 0.1 M NaOH. The ligand-binding was measured in relative response units (RU) for each sample, and calculated from the difference in RU at the baseline, viz., before injection of sample, and final experimental reading taken after sample injection and a 2-min wash. The percentage binding was thus determined.

[2] = molecular target: T2, SSCrFCES (LPS-binding domain of C. rotundicauda Factor C, rFCES amino acids 29-330, numbered as in SEQ ID NO: 4) (Carcinoscorpius rotundicauda, UniProt Q26422); experiment: ELISA-based lipid A binding assay
T2 construct: rFCES (amino acids 29-330); made in house; host or cells: Drosophila S2 cells
T2 sequence (Q26422 29-330): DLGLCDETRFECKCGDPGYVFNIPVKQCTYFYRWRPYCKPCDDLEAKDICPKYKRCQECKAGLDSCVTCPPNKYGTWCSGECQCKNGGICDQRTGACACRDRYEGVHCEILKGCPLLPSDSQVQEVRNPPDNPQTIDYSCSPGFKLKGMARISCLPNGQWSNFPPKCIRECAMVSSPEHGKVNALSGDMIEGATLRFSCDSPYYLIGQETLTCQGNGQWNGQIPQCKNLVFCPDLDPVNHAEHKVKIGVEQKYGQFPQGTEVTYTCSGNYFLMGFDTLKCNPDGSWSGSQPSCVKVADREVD
Description: A Polysorp™ 96-well plate (Nunc) was first coated with 100 μl per well of various concentrations of lipid A diluted in pyrogen-free PBS. The plate was sealed and allowed to incubate overnight at room temperature. The wells were aspirated and washed 6 times with 200 μl per wash solution (PBS containing 0.01% Tween-20 and 0.01% thimerosal). Blocking of unoccupied sites was achieved using wash solution containing 0.2% BSA for 1 hour at room temperature. Subsequently, blocking solution was removed and the wells washed as described above. Varying concentrations of SSCrFCES were allowed to interact with bound lipid A at room temperature for 2 hours.
Bound SSCrFCES was detected by sequential incubation with rabbit anti-SSCrFCES antibody (1:1000 dilution) and goat anti-rabbit antibody conjugated with HRP (1:2000 dilution) (Dako). Incubation with each antibody was for 1 h at 37° C. with washing between incubations as described above. In the final step, 100 μl of peroxide substrate ABTS (Boehringer Mannheim) was added. Using a microtiter plate reader, the absorbance of the samples was determined at 405 nm with reference wavelength at 490 nm. The values were correlated to the amount of LPS bound and SSCrFCES present. Quantitation of SSCrFCES was achieved from a standard curve derived by immobilizing known amount of purified SSCrFCES onto a Maxisorp plate.

NH-LBP (aa 1-197) = settings: Han et al., 1994; ligand cell empty; read-out: Equilibrium constant; cited from earlier work
BPI pep85-99 (15 mer) = settings: de Haas et al., 1998; ligand cell empty; read-out: Equilibrium constant; cited from earlier work

## lipid A
[1]
  net response, lipid A bound: approximately 30%
[2]
  Hill's coefficient: 2.2
  molar ratio of bound SSCrFCES to immobilized lipid A at saturation: 0.37
[2]; at saturation
  stoichiometry, lipid A molecules per SSCrFCES: ~3
NH-LBP (aa 1-197)
  Kd: 51 nM
BPI pep85-99 (15 mer)
  Kd: 1760 nM
